According to article PMC7300217, “Surfactin Like Broad Spectrum Antimicrobial Lipopeptide Co-produced With Sublancin From Bacillus subtilis Strain A52: Dual Reservoir of Bioactives” (Frontiers in Microbiology, 2020):

Columns and labels:
B. subtilis MTCC 121 = assay: MIC, microtiter plate dilution assay; type: cell-based, Bacillus subtilis; conditions: 5 × 10^5 CFU/ml, 37°C, OD600 after 24 h, triplicate
Protocol: The antimicrobial activity was tested by well diffusion assay as mentioned earlier ([Singh et al., 2014]). Strain A52 was grown for 24 h in 500 ml of nutrient broth (NB, Hi-media, India) using 1000 ml flask and subsequently cells were removed by centrifugation (10,000 rpm for 15 min at 4°C). Supernatant was filtered through 0.22 μm filter (Millipore, United States) to obtain cell-free fermented broth (CFB) that was used for antimicrobial assay (50 μl) against various indicator strains and the activity was measured as diameter of inhibition zone. […]
The minimum inhibitory concentration (MIC) of HPLC purified peptides was evaluated by using microtiter plate dilution assay. […] OD was measured at 600 nm after 24 and 48 h for bacteria and yeast, respectively, using ELISA microplate reader (Thermo, United States). MIC against phytopathogenic fungi was determined using 96-well microtiter plate assay ([Kaur et al., 2016]). […] The microplates were incubated at 25°C and readings were recorded at 600 nm after 48 h. […]

[1] = Temperature sensitivity, residual antimicrobial activity; type: physicochemical; conditions: residual antimicrobial activity by well diffusion assay at RT; for Residual activity (%), temperature 100 ºC: 100 °C
Protocol: Sensitivity of purified peptides toward temperature, pH, and non-specific proteases was confirmed by performing bioassays. The pH stability was determined by adjusting the pH 2.0–12.0 of peptide aliquots (using 10 mM HCl or NaOH) and incubating for 4 h at room temperature. Samples were neutralized to pH 7.0 before processing for antimicrobial assay. To determine temperature susceptibility, peptides were incubated at different temperatures ranging from 37 to 100°C for 1 h and 121°C for 15 min and residual antimicrobial activity was determined at RT by well diffusion assay. Proteolytic enzymes trypsin and proteinase K (Sigma, United States) were used at three different concentrations (0.1, 1.0, and 5.0 mg/ml) to observe their effect on the peptide. The enzyme solutions were prepared in 50 mM phosphate buffer (pH 7.0). All reactions were performed at 37°C for 6 h followed by deactivation of enzyme by heating the solution in boiling water for 5 min before performing the activity assay.

## Glu^1-Leu/Ile^2-Leu^3-Val^4-Asp^5-Leu^6-Leu/Ile^7 and a β-OH hexadecane fatty acid chain (lariat or depsi) [Lipopeptide A52, cyclic surfactin-like lipopeptide, 7 amino acids and C16 β-hydroxy fatty acid, 1061.9 Da, from B. subtilis strain A52]
B. subtilis MTCC 121
  MIC value, B. subtilis MTCC 121: 2 µg/mL
[1]; 37 °C, 1h
  Residual activity (%), temperature 37 ºC: 100%
[1]; 50 °C, 1h
  Residual activity (%), temperature 50 ºC: 100%
[1]; 60 °C, 1h
  Residual activity (%), temperature 60 ºC: 100%
[1]; 70 °C, 1h
  Residual activity (%), temperature 70 ºC: 100%
[1]; 80 °C, 1h
  Residual activity (%), temperature 80 ºC: 100%
[1]; 1h, listed as Lipopeptide
  Residual activity (%), temperature 100 ºC: 100%
[1]; 1h, listed as surfactin-like lipopeptide
  Residual activity (%), temperature 100 ºC: not affected
[1]; 121 °C, 15 min (15 lbs)
  Residual activity (%), temperature 121 ºC (autoclaving): 89.0%
